Test results from patent US10968169B2, “Urea derivative” (Daiichi Sankyo Company, Limited, priority 2016, dated 2021).
Like-named read-outs stand apart in the source and are kept apart here.

How the values were obtained:
[1] = biological target: tryptophanase of Bacteroides thetaiotamicron (Bacteroides thetaiotaomicron, UniProt Q8A7N2); assay: Tryptophanase enzyme inhibitory activity (LDH-coupled NADH loss); assay type: biochemical; conditions: L-tryptophan 10 mM, 37° C., absorbance at 340 nm; read-out: Bacteroides Activity of Inhibiting Tryptophanase (IC50)
Experimental: Tryptophanase inhibitory activity was evaluated by a method using lactate dehydrogenase (LDH). The reaction time-dependent reduction in NADH conjugated with the enzymatic reaction, with LDH, of pyruvic acid produced through the enzymatic reaction of L-tryptophan as a substrate with tryptophanase, was measured with a spectrophotometer (Phillips-R S et al., Biochemistry, 23, 6228-6234 (1984)). Enzyme inhibitory activity obtained without adding a test compound (by adding DMSO alone) in the presence of tryptophanase was used as a control. As the enzyme, tryptophanase of Bacteroides thetaiotamicron (Genbank accession number: HC914434.1) was used. A test compound solution was prepared by dissolving each test compound in DMSO in an arbitrary concentration (from 30 mM to 30 nM at 10-fold common ratio). LDH, NADH and L-tryptophan were prepared, using distilled water, respectively to concentrations of 80 units/mL, 10 mM and […]. Bacteroides tryptophanase was prepared to 30 mg/mL. A potassium phosphate buffer was used as the buffer. [table] A reaction solution A was dispensed at 284.8 μL per well into a 96-well plate, and the test compound solution was added at 3.2 μL per well to obtain a final concentration of 1/100 (reaction solution B). The reaction solution B was incubated at 37° C. for 30 minutes, L-tryptophan was added thereto at 32 μL per well to obtain a final concentration of 10 mM (reaction solution C), and the enzyme reaction was performed at 37° C. over 30 minutes with absorbance at 340 nm measured for monitoring the NADH loss. Based on the NADH loss, the tryptophanase inhibitory activity of the compound was evaluated. Besides, the following compounds were similarly tested instead of the test compound.

[2] = test system: Bacteroides; assay: Indole production suppressing effect in viable bacteria; assay type: cell-based; conditions: indole concentration in culture supernatant, read-out: Eroides Activity of Inhibiting Indole Production(IC50)
Experimental: The effect of a tryptophanase inhibitory compound to suppress indole production from a viable bacterium can be evaluated through the following operation. When E. coli (Escherichia Coli) is used as a strain known to produce indole, the strain is cultured in an LB medium at 37° C. for 12 to 18 hours under anaerobic conditions, and then, suspended in an assay medium (5 mM L-Tryptophan/PBS(+)/25 mM HEPES (pH8)) in such a manner as to obtain O.D. of about 0.3. When bacteroides is used, the strain is cultured in a modified GAM medium at 37° C. for 12 to 18 hours under anaerobic conditions, and then suspended in an assay medium (5 mM L-Tryptophan/PBS(+)/25 mM HEPES (pH8)) in such a manner as to obtain O.D. of about 1.1. The thus obtained viable bacterial suspension prepared to have a final concentration of a compound of 1 μM to 10 mM is dispensed at 200 μL per well into a 96-well plate and cultured at 37° C. for 2 to 4 hours under anaerobic conditions, and O.D., an ATP concentration (that can be quantitatively determined by using BacTiter-Glo (Promega Corporation)) and an indole concentration in the culture supernatant (that can be quantitatively determined by utilizing Ehrlich reaction) are measured. The effect of the tryptophanase inhibitory compound to suppress indole production from a viable bacterium can be evaluated depending on the degree of lowering of the indole concentration in the culture supernatant. It can be checked whether or not the effect is derived from a function other than tryptophanase inhibition, such as a bactericidal function or a bacterial growth inhibitory function, depending on lowering of the O.D. or reduction in the ATP concentration or by performing a generally practiced antibacterial activity test (a MIC (minimum growth inhibition concentration) test) using levofloxacin or the like as a positive control. The activities of inhibiting indole production of the compounds of the respective examples shown in Table 11 were measured by the above-described method using Bacteroides to evaluate the effect of inhibiting indole production.

[3] = test system: indoxyl sulfate concentration in the plasma; assay: Effect of reducing indoxyl sulfate concentration in the plasma of mice; assay type: in vivo, male BALB/c mouse; conditions: oral
Experimental: An effect of a tryptophanase inhibitory compound to reduce an indoxyl sulfate concentration in the plasma of a mouse can be evaluated through the following operation.
After fasting a male BALB/c mouse overnight, a tryptophanase compound dissolved or suspended at a concentration of 0.01 to 10 mg/mL in a 0.5% methylcellulose (MC) solution used as a solvent and a 0.5% MC solution are orally administered by gavage at a dose of 10 mL/kg respectively to a test compound group and to a solvent control group. When 30 minutes have elapsed after the administration of the test compound or the solvent, L-tryptophan, that is, a substrate of tryptophanase, is orally administered by gavage at a dose of 1 to 3 g/kg. The L-tryptophan is suspended in a 0.5% tragacanth solution. For 12 hours after the administration of the L-tryptophan, blood is collected over time from a tail vein by using a hematocrit tube. The thus obtained blood is centrifuged at 11,000 rpm for 5 minutes to collect plasma, and the indoxyl sulfate concentration in the plasma is measured singly by liquid chromatography (fluorescence detection) or its combination with a mass spectrometer used subsequently. The indoxyl sulfate concentration in the plasma of the test compound group against the indoxyl sulfate concentration in the plasma of the solvent control group is calculated as, for example, a ratio of the area under a curve of the indoxyl sulfate concentration, and thus, the efficacy of each compound in a living body can be compared.
The indoxyl sulfate concentrations in plasma obtained by using the compounds of the respective examples shown in Table 12 below were measured by the above-described method to evaluate the effect of reducing indoxyl sulfate concentration.

tryptophanase of Bacteroides thetaiotamicron, sequence (Q8A7N2 entry or part of it, change not shown): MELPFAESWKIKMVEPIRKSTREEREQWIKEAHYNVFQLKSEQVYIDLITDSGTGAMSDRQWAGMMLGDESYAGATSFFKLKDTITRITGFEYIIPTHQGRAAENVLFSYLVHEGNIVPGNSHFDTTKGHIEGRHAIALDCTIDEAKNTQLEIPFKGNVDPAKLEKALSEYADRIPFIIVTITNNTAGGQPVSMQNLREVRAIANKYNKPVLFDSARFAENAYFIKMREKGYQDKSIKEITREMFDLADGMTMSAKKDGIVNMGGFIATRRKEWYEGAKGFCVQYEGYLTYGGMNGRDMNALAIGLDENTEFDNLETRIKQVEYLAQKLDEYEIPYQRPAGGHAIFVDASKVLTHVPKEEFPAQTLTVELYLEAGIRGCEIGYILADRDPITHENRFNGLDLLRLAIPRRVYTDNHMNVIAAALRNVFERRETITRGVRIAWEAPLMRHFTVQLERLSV

Compound | IC50 [1] [µM] | IC50 ([2]; Bacteroides) [µM] | Indoxyl Sulfate Reduction Effect in Male BALB/c Mouse Plasma (Indoxyl sulfate reduction effect in plasma 6 hours after administering L-tryptophan: ED75−, mg/kg) [3] [mg/kg] | IC50 [2] [µM]
CCC(CC)(NC(=O)Nc1ccccc1)C(=O)O [Compound A, 2-ethyl-2-[(phenylcarbamoyl)amino]butanoic acid] | 20 | 8 | 1 | 
CC[C@@](NC(=O)Nc1cccc(C#N)c1)(C(=O)O)C1CC1 [(−) Isomer Compound of Example 33, (−)-2-{[(3-cyanophenyl)carbamoyl]amino}-2-cyclopropylbutanoic acid] | 7.7 |  | >1 | 9

Continued, in another order:

IC50 [1] [µM] | Compound | IC50 ([2]; Bacteroides) [µM] | Indoxyl Sulfate Reduction Effect in Male BALB/c Mouse Plasma (Indoxyl sulfate reduction effect in plasma 6 hours after administering L-tryptophan: ED75−, mg/kg) [3] [mg/kg] | IC50 [2] [µM]
12.8 | CC[C@@](C)(NC(=O)Nc1ccc(OC(F)F)cc1)C(=O)O [Example 8, (−)-N-{[4-(Difluoromethoxy)phenyl]carbamoyl}-D-isovaline] | 7 | 1 | 
26.8 | CC[C@@](C)(NC(=O)Nc1ccc(Cl)cc1)C(=O)O [Example 25, (−)-N-[(4-Chlorophenyl)carbamoyl]-D-isovaline] | 23 | 1 | 
6 | CCC(CC)(NC(=O)Nc1csc(Cl)c1)C(=O)O [Example 27, 2-{[(5-Chlorothiophen-3-yl)carbamoyl]amino}-2-ethylbutanoic acid] | 5 | 1 | 
